Measured values from a melting point compilation (Tetko et al.; mined from patent text by program, amines drawn as free bases though some values may be those of a salt).

Row | SMILES | melting point [°C]
1 | Nc1n[nH]c2c1CCC2 | 116 to 120
2 | Oc1nc2ccc(Br)cc2[nH]1 | 305 to 307
3 | COC(=O)CCN1CCC(NC(=O)OC(C)(C)C)CC1 | 91 to 93
4 | Cc1ccc(CSc2nc(N)nc3nc[nH]c23)cc1 | 240 to 242
5 | CN(N)c1cnn(-c2cccc(C(F)(F)F)c2)c(=O)c1 | 125 to 127
6 | O=C1N(O)CC12CCOc1cc(Cl)c(Cl)cc12 (stereo not drawn) | 157 to 158
7 | O=C(O)[C@H]1CCCN1C(=O)CCS | 68 to 70
8 | CN(C)C(=O)n1ccc(-c2ccc(Oc3ccc(F)cc3)cc2)n1 | 59 to 63
9 | CCCc1nn(C)c2c(=O)[nH]c(Cc3ccc(O)cc3)nc12 | 260
10 | CCCCNC(=O)NS(=O)(=O)c1cccc2c1CCCC2 | 173 to 175
11 | CN1C(=O)CCC2=C1CCc1cc(F)ccc12 | 108
12 | OC1(c2ccc3c(c2)OCO3)CCNCC1 | 135 to 138
13 | CCOC(=O)C1(NC(=O)Nc2cccc(C)c2)N=C(c2ccc(Cl)cc2)c2ccccc2-n2c(C)nnc21 (stereo not drawn) | 168 to 172
14 | CCN(C1CC(C)(C)Oc2ccc(OCc3cc(OC)ccn3)cc21)S(C)(=O)=O (stereo not drawn) | 87 to 89
15 | CN(Cc1cc2c(=O)c(C(=O)NCc3ccc(Cl)cc3)cn(C)c2s1)C[C@@H](O)c1ccc([N+](=O)[O-])cc1 | 181 to 183
16 | Cn1cc(-c2ccc(O)cc2)c(=O)c(-c2cccc(C(F)(F)F)c2)c1 | 162 to 163
17 | COc1cccc2c1nc(C(F)F)n2-c1nc(N2CCOCC2)nc2c1ncn2-c1cccnc1 | 206 to 209
18 | C=C=C(C)C1Oc2cccc(OC)c2-c2ccc3c(c21)C(C)=CC(C)(C)N3 (stereo not drawn) | 59 to 63
19 | CC(C)(C)OC(=O)C[C@@H]1C[C@@H](COS(C)(=O)=O)NC1=O | 114 to 116
20 | CCCc1nc2c(N)nc(C)c(C)c2n1CCCCCCS(C)(=O)=O | 157 to 158
21 | Clc1cccc(C2(Cn3cncn3)OCCO2)c1 | 114

Row | SMILES | melting point [°C]
22 | CCCc1c2c(cc3c(=O)cc(C(=O)OCC)oc13)CCCC2 | 98 to 99.5
23 | CSc1nccc(-c2cccc(C(F)(F)F)c2)n1 | 89 to 90
24 | CNC(=O)c1ncc2[nH]c3ccc(N)cc3c2c1C | 281 to 285
25 | Nc1ccc(OC[C@@H]2CCCN2c2ccc3ccccc3n2)cc1 | 138 to 140
26 | Nc1cc(OCC2CC2)c(C(=O)NC2CN3CCC2CC3)cc1Cl (stereo not drawn) | 183 to 185
27 | Cc1ccc(C2CCN(C(=O)Nc3ccc4nc(CN5CCCC5)ccc4c3)CC2)cc1 | 214 to 216
28 | CS(=O)c1cc(-c2ccc(C(F)(F)F)cc2)ccc1C#N (stereo not drawn) | 127 to 128
29 | Oc1ccc2cc(-c3cnc(-c4cn(Cc5ccccc5)c5ccccc45)o3)ccc2c1 | 242 to 244
30 | O=C1CC(c2cccc(Cl)c2)c2cc(C(=O)c3ccc(Cl)cc3)ccc2N1 (stereo not drawn) | 195
31 | CN1Cc2c(-c3noc(CCl)n3)ncn2-c2ccc(F)cc2C1=O | 245 to 247
32 | CCc1cc(O)cc(O)c1 | 97 to 98
33 | Cc1ccc(S(=O)(=O)NCCCCOc2ccc(-n3cnnn3)cc2)cc1 | 127 to 128
34 | CS(=O)(=O)c1c(C(=O)c2cnoc2C2CC2)ccc(F)c1F | 115 to 118
35 | CCCCCc1cc2c(nc(O)n2CC2CCN(S(=O)(=O)CC)CC2)c(N)n1 | 222 to 225
36 | CCOc1nn(-c2cc(C(F)(F)F)ccn2)cc1CCCO | 73 to 74
37 | c1cc(C2CCCCC2)ccc1N=C1NCCCN1 | 179 to 181
38 | C=Cc1c2c(c(C)c(C)c1N1CCN(c3ccc(OC)cc3)CC1)OC(C)(C)C2=O | 147 to 148
39 | CC(C)N=C1C(c2ccccc2)=C(c2ccccc2)C(c2ccccc2)=C1c1ccccc1 | 223
40 | Cc1cc2c(cc1Br)OCC(C)(C)CC2(O)c1ccccn1 (stereo not drawn) | 129
41 | CC(C)(C)CC(C)(C)c1cc(-n2nc3ccc(-c4cccnc4)cc3n2)c(O)c(C(C)(C)c2ccccc2)c1 | 126 to 128

Now from value to compound:

Row | melting point [°C] | SMILES
42 | 143 to 144 | CCCn1c(=O)c2cc(C(=O)OCC)cn2c2ccccc21
43 | 119 to 120 | CC(C)CC1(CC(=O)NO)CCN(Cc2ccccc2)C1=O (stereo not drawn)
44 | 118 to 119 | COc1nc(-c2c(F)cccc2F)nn1-c1ccccc1C(F)(F)F
45 | 75 to 76 | CCON=C(CC)C1=C(O)CC(c2ccc(C(=O)OC)cc2)CC1=O (stereo not drawn)
46 | 204 | COc1ccc2cccc(N3C(=O)CN(CC#N)CC3=O)c2c1
47 | 67 to 70 | CCOC(=O)c1cc(CC)sc1Nc1c(Cl)cccc1[N+](=O)[O-]
48 | 144 to 146 | Cc1cc(=O)n2cccc(OCc3ccccc3Br)c2n1
49 | 85 to 95 | CN(CCN1CCOCC1)c1ccc(OCC(=O)N[C@@H](CC(N)=O)C(=O)N[C@@H](Cc2ccccc2)[C@H](O)C(=O)N2CCC[C@H]2C(=O)NC(C)(C)C)cc1
50 | 103 to 105 | COC(=O)OC(C(=O)O)c1ccccc1 (stereo not drawn)
51 | 143 to 145 | CC(C)NCC(O)COc1cccc2c1CCCC(=O)N2 (stereo not drawn)
52 | 168 to 170 | COc1ccccc1CN1CCN(C)CC1C1=NCCN1 (stereo not drawn)
53 | 64 to 65 | CN(C)c1ccc(-c2cc(N(C(=O)OC(C)(C)C)C(=O)OC(C)(C)C)nn2C(=O)OC(C)(C)C)cc1
54 | 127 to 129 | CCNc1nc(Nc2ccccc2C)c2ccccc2n1
55 | 158 to 160 | O=C(Nc1cccc(O)c1)C(=O)N1CCC(Cc2ccccc2)CC1
56 | 240 to 241 | S=C(NCc1cccnc1)c1[nH]c2ccc(Cl)cc2c1-c1ccccc1
57 | 164 to 167 | COc1ccc2c(c1)CC(C(=O)O)N2C(C)=O (stereo not drawn)

Row | melting point [°C] | SMILES
58 | 95 to 96 | CN(CCOc1ccc([N+](=O)[O-])cc1F)c1ccccn1
59 | 230 | Cc1c(C(=O)NC2(C(=O)O)Cc3cccc(Br)c3C2)oc2cc(-c3ccc(Cl)cc3)ccc12 (stereo not drawn)
60 | 145 | COc1ccc(Br)c(C(=O)N2CCN(S(=O)(=O)c3cccc(F)c3)CC2)c1
61 | 102 to 107 | CCOC(=O)Cc1cc(OC)c(OC(C)=O)c(C2(OC(C)=O)C(=O)c3ccccc3C2=O)c1
62 | 129 to 131 | Cc1nc(-c2ccccc2)nc(-c2ccc(O)c(N)c2)c1C(=O)N1CCN(C)CC1
63 | 64 to 65 | CCOC(=O)/C=C/C=C/c1ccc(OC(C)C)cc1
64 | 134 to 135 | CC(O)=C(C#N)C(=O)Nc1ccccc1
65 | 188 to 189 | CNC(=O)Nc1ccc(O)c(Cl)c1
66 | 250 to 252 | O=S1(=O)N=C(NCCc2ccccc2)Nc2ccc(Cl)cc21
67 | 132 to 134 | C[N+]1([O-])CC(c2ccccn2)C(=O)c2ccccc21 (stereo not drawn)
68 | 71 to 73 | CC(C)(C)OC(=O)NCCc1ccc(N)cc1
69 | 309 to 311 | O=c1[nH]c2c(Cl)cc(Cl)cc2c2nc(-c3ccccc3)nn12
70 | 127 | CCN(CC)C(=O)c1nc(-c2ccccc2)nc2ccccc12
71 | 65 to 67 | CCOC(=O)c1ccc(NCCCCCCCc2ccccc2)cc1
72 | 126 | COc1cc(NC(=O)N(c2ccc(N(C)C)cc2)C2CCCCCC2)c(OC(=O)[C@H](C)NC(=O)OCc2ccccc2)c(C(C)(C)C)c1
73 | 198 | CN1C(=O)C(=O)N(Cc2ccccc2)CC1(CCO)c1ccc(Cl)c(Cl)c1 (stereo not drawn)
